Assay results reported in paper PMC2850272 (Bioorganic & medicinal chemistry, 2010).

Conditions: pH 7.4

Substance	Permeability (PAMPA)
2-(Benzo[d][1,3]dioxol-5-yl)-3-(ethoxymethyl)-5-methoxyquinoline [30b]	2796±1746 10^−6 cm/s
2-(Benzo[d][1,3]dioxol-5-yl)-4-chloro-3-(ethoxymethyl)-7-methoxyquinoline [28a]	802±370 10^−6 cm/s
Ethyl 2-(benzo[d][1,3]dioxol-5-yl)-5-methoxy-4-(methylamino)quinoline-3-carboxylate [25b]	1240±154 10^−6 cm/s
Ethyl 2-(benzo[d][1,3]dioxol-5-yl)-7-methoxy-4-(methylamino)quinoline-3-carboxylate [25a]	2013±179 10^−6 cm/s
